Earlier results in patent US7615533B2, “TPO peptide compounds for treatment of anemia” (Janssen Pharmaceutica N.V., priority 2004, dated 2009).

Test system: rhesus monkeys exposed to 5 Gy total body irradiation
Conditions: 5 Gy total body irradiation (300-kV x-rays); cited from earlier work

Substance: human recombinant TPO: human recombinant thrombopoietin, glycoprotein; comparator in the reporter assay and cited in the background
- reticulocyte regeneration initiated earlier than in placebo-treated animals: 10 days
